US10770169B2, “Method of providing a treatment to a subject based on a dynamic pathway map” (THE REGENTS OF THE UNIVERSITY OF CALIFORNIA, priority 2010, dated 2020)

What was measured:
[1] = tested on: panel of 55 breast cancer cell lines; assay: Cell growth inhibition assay (Cell Titer Glo, 72 h, 9 doses; GI50, TGI, LC50); type: cell-based, human; details: value is the negative log10 of mol/L
[2] = tested on: luminal, basal, claudin-low and ERBB2AMP breast cancer cell lines; assay: Associations of clinically relevant subtypes and response (non-parametric ANOVA or t-test on GI50 ranks); type: cell-based, human; details: Table 6; most sensitive subtype, FDR p<0.20
Method in brief: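 GI50 values were compared between cell-line subtype groups by non-parametric ANOVA or t-test on ranks. P-values from three test sets were combined and FDR-corrected. Significant three-group effects were followed by post-hoc comparison of each group against all others, and FDR p<0.20 counted as significant.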

Compound `C=CCNC1=C2C[C@@H](C)C[C@H](OC)[C@H](O)[C@@H](C)/C=C(\C)[C@H](OC(N)=O)[C@@H](OC)/C=C\C=C(/C)C(=O)NC(=CC1=O)C2=O` [17-AAG] has a GI50 ([1]; 600MPE cell line, censored GI50 values) of 6.87, a GI50 ([1]; AU565 cell line, censored GI50 values) of 7.25 and a GI50 ([1]; BT474 cell line, censored GI50 values) of 7.69. It also gave a GI50 ([1]; BT483 cell line, censored GI50 values) of 6.65, a GI50 ([1]; BT549 cell line, censored GI50 values) of 7.47 and a GI50 ([1]; CAMA1 cell line, censored GI50 values) of 6.57. The GI50 ([1]; HCC38 cell line, censored GI50 values) was 7.23, the GI50 ([1]; HCC70 cell line, censored GI50 values) was 6.62 and the GI50 ([1]; HCC202 cell line, censored GI50 values) was 8.39. The GI50 ([1]; HCC1143 cell line, censored GI50 values) was 6.86, the GI50 ([1]; HCC1187 cell line, censored GI50 values) was 5.29 and the GI50 ([1]; HCC1395 cell line, censored GI50 values) was 6.54. It also gave a GI50 ([1]; HCC1419 cell line, censored GI50 values) of 7.35, a GI50 ([1]; HCC1428 cell line, censored GI50 values) of 7.70 and a GI50 ([1]; HCC1500 cell line, censored GI50 values) of 6.91. It also gave a GI50 ([1]; HCC1806 cell line, censored GI50 values) of 7.04, a GI50 ([1]; HCC1937 cell line, censored GI50 values) of 6.87 and a GI50 ([1]; HCC1954 cell line, censored GI50 values) of 7.49. The GI50 ([1]; HCC2185 cell line, censored GI50 values) was 6.93, the GI50 ([1]; HCC3153 cell line, censored GI50 values) was 6.81 and the GI50 ([1]; LY2 cell line, censored GI50 values) was 6.97. For the same compound, the GI50 ([1]; MCF7 cell line, censored GI50 values) was 6.25, the GI50 ([1]; MDAMB134VI cell line, censored GI50 values) was 7.46 and the GI50 ([1]; MDAMB175VII cell line, censored GI50 values) was 7.54. For the same compound, the GI50 ([1]; MDAMB231 cell line, censored GI50 values) was 6.11, the GI50 ([1]; MDAMB361 cell line, censored GI50 values) was 7.24 and the GI50 ([1]; MDAMB415 cell line, censored GI50 values) was 7.30. For the same compound, the GI50 ([1]; MDAMB436 cell line, censored GI50 values) was 5.96, the GI50 ([1]; MDAMB453 cell line, censored GI50 values) was 7.14 and the GI50 ([1]; MDAMB468 cell line, censored GI50 values) was 5.62. The GI50 ([1]; SKBR3 cell line, censored GI50 values) was 7.50, the GI50 ([1]; SUM44PE cell line, censored GI50 values) was 8.84 and the GI50 ([1]; SUM52PE cell line, censored GI50 values) was 7.46. It also gave a GI50 ([1]; SUM149PT cell line, censored GI50 values) of 7.00, a GI50 ([1]; SUM159PT cell line, censored GI50 values) of 7.46 and a GI50 ([1]; SUM185PE cell line, censored GI50 values) of 7.46. It also gave a GI50 ([1]; SUM1315MO2 cell line, censored GI50 values) of 7.66, a GI50 ([1]; UACC893 cell line, censored GI50 values) of 7.90 and a GI50 ([1]; ZR75B cell line, censored GI50 values) of 7.14. For the same compound, the GI50 ([1]; ZR751 cell line, censored GI50 values) was 6.56, the GI50 ([1]; cell line 600MPE) was 6.87 and the GI50 ([1]; cell line AU565) was 7.25. The GI50 ([1]; cell line BT474) was 7.69, the GI50 ([1]; cell line BT483) was 6.65 and the GI50 ([1]; cell line BT549) was 7.47. For the same compound, the GI50 ([1]; cell line CAMA1) was 6.57, the GI50 ([1]; cell line HCC38) was 7.23 and the GI50 ([1]; cell line HCC70) was 6.62. For the same compound, the GI50 ([1]; cell line HCC202) was 8.39, the GI50 ([1]; cell line HCC1143) was 6.86 and the GI50 ([1]; cell line HCC1187) was 5.29. It also gave a GI50 ([1]; cell line HCC1395) of 6.54, a GI50 ([1]; cell line HCC1419) of 7.35 and a GI50 ([1]; cell line HCC1428) of 7.70. It also gave a GI50 ([1]; cell line HCC1500) of 6.91, a GI50 ([1]; cell line HCC1806) of 7.04 and a GI50 ([1]; cell line HCC1937) of 6.87. For the same compound, the GI50 ([1]; cell line HCC1954) was 7.49, the GI50 ([1]; cell line HCC2185) was 6.93 and the GI50 ([1]; cell line HCC3153) was 6.81. It also gave a GI50 ([1]; cell line LY2) of 6.97, a GI50 ([1]; cell line MCF7) of 6.25 and a GI50 ([1]; cell line MDAMB134V) of 7.46. The GI50 ([1]; cell line MDAMB175V) was 7.54, the GI50 ([1]; cell line MDAMB231) was 6.11 and the GI50 ([1]; cell line MDAMB361) was 7.24. For the same compound, the GI50 ([1]; cell line MDAMB415) was 7.30, the GI50 ([1]; cell line MDAMB436) was 5.96 and the GI50 ([1]; cell line MDAMB453) was 7.14. The GI50 ([1]; cell line MDAMB468) was 5.62, the GI50 ([1]; cell line SKBR3) was 7.50 and the GI50 ([1]; cell line SUM44PE) was 8.84. For the same compound, the GI50 ([1]; cell line SUM52PE) was 7.46, the GI50 ([1]; cell line SUM149PT) was 7.00 and the GI50 ([1]; cell line SUM159PT) was 7.46. It also gave a GI50 ([1]; cell line SUM185PE) of 7.46, a GI50 ([1]; cell line SUM1315MO) of 7.66 and a GI50 ([1]; cell line UACC893) of 7.90. For the same compound, the GI50 ([1]; cell line ZR75B) was 7.14, the GI50 ([1]; cell line ZR751) was 6.56 and the Subtype specificity [2] was “Luminal/ERBB2AMP”.
